In US20170190671A1, “BIS(ARYL)CATECHOL DERIVATIVES AS HERBICIDES” (E I DU PONT DE NEMOURS AND COMPANY, priority 2014, published 2017):

Assays:
Assay type in all cases: in vivo
Conditions in all cases: scale 0 to 100
kochia (Kochia scoparia) = assay: Test E preemergence
How it was run: (§1)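 Preemergence: seeds in silt loam treated with compound in non-phytotoxic solvent with surfactant. Postemergence: plants at 1- to 4-leaf stage (2–18 cm) in peat-based medium sprayed likewise. Greenhouse 14–21 days, then visual rating vs controls, 0 (no effect) to 100 (complete control).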

[1] = tested on: Italian ryegrass (Lolium multiflorum); assay: Test E preemergence
How it was run: as §1

[2] = tested on: Brazilian crabgrass (Digitaria horizontalis); assay: Test E preemergence
How it was run: as §1

[3] = tested on: fall panicum (Panicum dichotomiflorum); assay: Test E preemergence
How it was run: as §1

[4] = tested on: chickweed (common chickweed, Stellaria media); assay: Test D preemergence
Text: (§2) Seeds of plant species selected from bluegrass (annual bluegrass, Poa annua), blackgrass (Alopecurus myosuroides), canarygrass (Phalaris minor), chickweed (common chickweed, Stellaria media), cutleaf geranium (Geranium dissectum), galium (catchweed bedstraw, Galium aparine), downy bromegrass (Bromus tectorum), field poppy (Papaver rhoeas), field violet (Viola arvensis), green foxtail (Setaria viridis), deadnettle (henbit deadnettle, Lamium amplexicaule), Italian ryegrass (Lolium multiflorum), kochia (Kochia scoparia), lambsquarters (Chenopodium album), oilseed rape (Brassica napus), pigweed (Amaranthus retroflexus), chamomile (scentless chamomile, Matricaria inodora), Russian thistle (Salsola kali), speedwell (bird's-eye speedwell, Veronica persica), spring barley (Hordeum vulgare), spring wheat (Triticum aestivum), wild buckwheat (Polygonum convolvulus), wild mustard (Sinapis arvensis), wild oat (Avenafatua), wild radish (Raphanus raphanistrum), windgrass (Apera spica-venti), winter barley (Hordeum vulgare), and winter wheat (Triticum aestivum) were planted into a silt loam soil and treated preemergence with test chemicals formulated in a non-phytotoxic solvent mixture which included a surfactant.
(§3) At the same time, these species were planted in pots containing Redi-Earth® planting medium (Scotts Company, 14111 Scottslawn Road, Marysville, Ohio 43041) comprising spaghnum peat moss, vermiculite, wetting agent and starter nutrients and treated with postemergence applications of the test chemicals formulated in the same manner. Plants ranged in height from 2 to 18 cm (1- to 4-leaf stage). Treated plants and controls were maintained in a controlled growth environment for 14 to 21 days after which time all species were compared to controls and visually evaluated. Plant response ratings, summarized in Table D, are based on a scale of 0 to 100 where 0 is no effect and 100 is complete control. A dash (-) response means no test result.

[5] = tested on: blackgrass (Alopecurus myosuroides); assay: Test D preemergence
Text: as §2, §3

[6] = tested on: bluegrass (annual bluegrass, Poa annua); assay: Test D preemergence
Text: as §2, §3

[7] = tested on: downy bromegrass (Bromus tectorum); assay: Test D preemergence
Text: as §2, §3

[8] = tested on: Russian thistle (Salsola kali); assay: Test D preemergence
Text: as §2, §3

[9] = tested on: canarygrass (Phalaris minor); assay: Test D preemergence
Text: as §2, §3

[10] = tested on: wild buckwheat (Polygonum convolvulus); assay: Test D preemergence
Text: as §2, §3

[11] = tested on: wild mustard (Sinapis arvensis); assay: Test D preemergence
Text: as §2, §3

Fc1ccc(F)c(Oc2ncc(Cl)cn2)c1Oc1ncc(Cl)cn1 [Compound 34, 2,2′-[(3,6-difluoro-1,2-phenylene)bis(oxy)]bis[5-chloropyrimidine]]
Plant response rating, Kochia (kochia (Kochia scoparia); 16 g ai/ha): 0 | Plant response rating, Kochia (kochia (Kochia scoparia); 31 g ai/ha): 95 | Plant response rating, Kochia (kochia (Kochia scoparia); 62 g ai/ha): 100 | Plant response rating, Kochia (kochia (Kochia scoparia); 125 g ai/ha): 100 | Plant response rating, Ryegrass, Italian ([1]; 16 g ai/ha): 0 | Plant response rating, Ryegrass, Italian ([1]; 31 g ai/ha): 0 | Plant response rating, Ryegrass, Italian ([1]; 62 g ai/ha): 35 | Plant response rating, Ryegrass, Italian ([1]; 125 g ai/ha): 70 | Plant response rating, Crabgrass, Brazil ([2]; 16 g ai/ha): 0 | Plant response rating, Crabgrass, Brazil ([2]; 31 g ai/ha): 35 | Plant response rating, Crabgrass, Brazil ([2]; 62 g ai/ha): 95 | Plant response rating, Crabgrass, Brazil ([2]; 125 g ai/ha): 98 | Plant response rating, Panicum, Fall ([3]; 16 g ai/ha): 50 | Plant response rating, Panicum, Fall ([3]; 31 g ai/ha): 80 | Plant response rating, Panicum, Fall ([3]; 62 g ai/ha): 98 | Plant response rating, Panicum, Fall ([3]; 125 g ai/ha): 100

N#Cc1cccc(Oc2ncc(Cl)cn2)c1Oc1ncc(C(F)(F)F)cn1 [Compound 38, 3-[(5-chloro-2-pyrimidinyl)oxy]-2-[[5-(trifluoromethyl)-2-pyrimidinyl]oxy]-benzonitrile]
Plant response rating, Kochia (kochia (Kochia scoparia); 16 g ai/ha): 80 | Plant response rating, Kochia (kochia (Kochia scoparia); 31 g ai/ha): 98 | Plant response rating, Kochia (kochia (Kochia scoparia); 62 g ai/ha): 100 | Plant response rating, Kochia (kochia (Kochia scoparia); 125 g ai/ha): 100 | Plant response rating, Ryegrass, Italian ([1]; 16 g ai/ha): 0 | Plant response rating, Ryegrass, Italian ([1]; 31 g ai/ha): 25 | Plant response rating, Ryegrass, Italian ([1]; 62 g ai/ha): 65 | Plant response rating, Ryegrass, Italian ([1]; 125 g ai/ha): 80 | Plant response rating, Crabgrass, Brazil ([2]; 16 g ai/ha): 80 | Plant response rating, Crabgrass, Brazil ([2]; 31 g ai/ha): 98 | Plant response rating, Crabgrass, Brazil ([2]; 62 g ai/ha): 100 | Plant response rating, Crabgrass, Brazil ([2]; 125 g ai/ha): 100 | Plant response rating, Panicum, Fall ([3]; 16 g ai/ha): 0 | Plant response rating, Panicum, Fall ([3]; 31 g ai/ha): 98 | Plant response rating, Panicum, Fall ([3]; 62 g ai/ha): 100 | Plant response rating, Panicum, Fall ([3]; 125 g ai/ha): 100

Fc1cccc(Oc2ncc(C(F)(F)F)cn2)c1Oc1ncc(Cl)cn1 [Compound 42, 5-chloro-2-[2-fluoro-6-[[5-(trifluoromethyl)-2-pyrimidinyl]oxy]phenoxy]pyrimidine]
Plant response rating, Kochia (kochia (Kochia scoparia); 16 g ai/ha): 80 | Plant response rating, Kochia (kochia (Kochia scoparia); 31 g ai/ha): 90 | Plant response rating, Kochia (kochia (Kochia scoparia); 62 g ai/ha): 100 | Plant response rating, Kochia (kochia (Kochia scoparia); 125 g ai/ha): 100 | Plant response rating, Ryegrass, Italian ([1]; 16 g ai/ha): 20 | Plant response rating, Ryegrass, Italian ([1]; 31 g ai/ha): 40 | Plant response rating, Ryegrass, Italian ([1]; 62 g ai/ha): 80 | Plant response rating, Ryegrass, Italian ([1]; 125 g ai/ha): 98 | Plant response rating, Crabgrass, Brazil ([2]; 16 g ai/ha): 35 | Plant response rating, Crabgrass, Brazil ([2]; 31 g ai/ha): 95 | Plant response rating, Crabgrass, Brazil ([2]; 62 g ai/ha): 100 | Plant response rating, Crabgrass, Brazil ([2]; 125 g ai/ha): 100 | Plant response rating, Panicum, Fall ([3]; 16 g ai/ha): 0 | Plant response rating, Panicum, Fall ([3]; 31 g ai/ha): 98 | Plant response rating, Panicum, Fall ([3]; 62 g ai/ha): 100 | Plant response rating, Panicum, Fall ([3]; 125 g ai/ha): 100 | Plant response rating, Chickweed ([4]; 16 g ai/ha): 70 | Plant response rating, Chickweed ([4]; 31 g ai/ha): 100 | Plant response rating, Chickweed ([4]; 62 g ai/ha): 100 | Plant response rating, Chickweed ([4]; 125 g ai/ha): 100 | Plant response rating, Blackgrass ([5]; 16 g ai/ha): 0 | Plant response rating, Blackgrass ([5]; 31 g ai/ha): 10 | Plant response rating, Blackgrass ([5]; 62 g ai/ha): 35 | Plant response rating, Blackgrass ([5]; 125 g ai/ha): 75 | Plant response rating, Bluegrass ([6]; 16 g ai/ha): 10 | Plant response rating, Bluegrass ([6]; 31 g ai/ha): 0 | Plant response rating, Bluegrass ([6]; 62 g ai/ha): 45 | Plant response rating, Bluegrass ([6]; 125 g ai/ha): 90 | Plant response rating, Bromegrass, Downy ([7]; 16 g ai/ha): 0 | Plant response rating, Bromegrass, Downy ([7]; 31 g ai/ha): 10 | Plant response rating, Bromegrass, Downy ([7]; 62 g ai/ha): 50 | Plant response rating, Bromegrass, Downy ([7]; 125 g ai/ha): 65 | Plant response rating, Russian Thistle ([8]; 16 g ai/ha): 0 | Plant response rating, Russian Thistle ([8]; 31 g ai/ha): 20 | Plant response rating, Russian Thistle ([8]; 62 g ai/ha): 15 | Plant response rating, Russian Thistle ([8]; 125 g ai/ha): 55 | Plant response rating, Canarygrass ([9]; 16 g ai/ha): 15 | Plant response rating, Canarygrass ([9]; 31 g ai/ha): 35 | Plant response rating, Canarygrass ([9]; 62 g ai/ha): 35 | Plant response rating, Canarygrass ([9]; 125 g ai/ha): 100 | Plant response rating, Buckwheat, Wild ([10]; 16 g ai/ha): 0 | Plant response rating, Buckwheat, Wild ([10]; 31 g ai/ha): 0 | Plant response rating, Buckwheat, Wild ([10]; 62 g ai/ha): 100 | Plant response rating, Buckwheat, Wild ([10]; 125 g ai/ha): 100 | Plant response rating, Mustard, Wild ([11]; 16 g ai/ha): 70 | Plant response rating, Mustard, Wild ([11]; 31 g ai/ha): 65 | Plant response rating, Mustard, Wild ([11]; 62 g ai/ha): 85 | Plant response rating, Mustard, Wild ([11]; 125 g ai/ha): 100

Fc1cccc(Oc2ncc(Cl)cn2)c1Oc1ncc(C(F)(F)F)cn1 [Compound 43, 5-chloro-2-[5-fluoro-6-[[5-(trifluoromethyl)-2-pyrimidinyl]oxy]phenoxy]pyrimidine]
Plant response rating, Kochia (kochia (Kochia scoparia); 31 g ai/ha): 98 | Plant response rating, Kochia (kochia (Kochia scoparia); 125 g ai/ha): 100 | Plant response rating, Ryegrass, Italian ([1]; 31 g ai/ha): 40 | Plant response rating, Ryegrass, Italian ([1]; 125 g ai/ha): 98 | Plant response rating, Crabgrass, Brazil ([2]; 31 g ai/ha): 95 | Plant response rating, Crabgrass, Brazil ([2]; 125 g ai/ha): 100 | Plant response rating, Panicum, Fall ([3]; 31 g ai/ha): 95 | Plant response rating, Panicum, Fall ([3]; 125 g ai/ha): 100
